# According to US12195451B2 (priority 2015, dated 2025):
# Columns and labels:
# ICP0-null HSV-N212eGFP = format: cell-based, Herpes Simplex Virus type-1 (HSV-1)
# [1] = test system: VSV-Maraba-MG1-eGFP virus; format: cell-based, Maraba MG-1
# [2] = test system: adenovirus expressing firefly luciferase; format: cell-based, Adenovirus Serotype 5
# [3] = test system: adeno-associated virus expressing firefly luciferase; format: cell-based, AAV serotype 6
# MVA-eGFP = format: cell-based, modified vaccine ankara (MVA); details: human renal carcinoma (786-0) cells; infected after 4 hours, MOI 0.01; 48 h and 64 h after infection
# [4] = test system: adenovirus expressing firefly luciferase; experiment: Adenovirus transduction in A549 cancer cells (MOI 0.1, luciferase luminescence); format: cell-based, Adenovirus Serotype 5; details: pre-treated 2 hours at 21 uM to 120 or 160 uM, 40 hours post-infection
# [5] = test system: IFN-responsive U251 human glioma cells; details: cited from earlier work
# IFN-responsive promoter = details: cited from earlier work
# [6] = test system: virus-induced cellular genes; details: gene expression microarrays; cited from earlier work
# [7] = test system: adenovirus expressing firefly luciferase; experiment: Adenovirus transduction in normal mouse brain tissue cores; format: cell-based, Adenovirus Serotype 5; details: 10, 20 or 40 uM for 4 hours, 1×10^7 pfu/well, 36 hours post-infection
# [8] = test system: adenovirus expressing firefly luciferase; experiment: Adenovirus transduction in normal mouse muscle tissue cores; format: cell-based, Adenovirus Serotype 5; details: 10, 20 or 40 uM for 4 hours, 1×10^7 pfu/well, 36 hours post-infection
# A/FM1 (H1N1) = test system: A/FM1 (H1N1); set-up: species or system Influenza A H1N1; details: in vivo
# [9] = test system: Salmonella typhimurium strains TA98 and TA100
# [10] = test system: Influenza H1N1 A/Puerto Rico/8/34 (PR8); format: cell-based
Structure (SMILES),HSV-1 replication (eGFP fluorescence and HSV titers) (ICP0-null HSV-N212eGFP),"adenovirus vector production (luciferase activity, fold increase vs untreated) [2]","adeno-associated virus vector production (luciferase activity, fold increase vs untreated) [3]",MVA vaccine strain infection of cells (eGFP fluorescence) (MVA-eGFP),Adenovirus transduction in cancer cells (fold increase luciferase luminescence vs adenovirus alone) [4],Adenovirus transduction in normal brain tissue [7],Adenovirus transduction in normal muscle tissue [8],further results
"COc1ccccc1CN1C(=O)C(Cl)=C(Cl)C1O (stereo not drawn) [CM01025, 3,4-Dichloro-5-hydroxy-1-(2-methoxy-benzyl)-1,5-dihydro-pyrrol-2-one]",enhance Herpes Simplex Virus type-1 (HSV-1) replication,,,,,,,
"O=C1OC(c2ccccc2)C(Cl)=C1Cl (stereo not drawn) [VSe1, 3,4-dichloro-5-phenyl-2,5-dihydrofuran-2-one, reference compound]",enhance Herpes Simplex Virus type-1 (HSV-1) replication,enhance the production,enhance the production,can be enhanced,enhance Adenovirus transduction,,,replication / spread of oncolytic virus MG1 (eGFP expression) [1]: enhance the replication; IFN-mediated protection of cells to VSVΔ51 infection [5]: suppress IFN-mediated protection; IFN-induced transcriptional activity (IFN-responsive promoter): inhibit IFN-induced transcriptional activity; virus-induced cellular genes whose transcription is repressed [6]: > 95%
"O=C1C(Cl)=C(Cl)C(O)N1CCN1CCOCC1 (stereo not drawn) [MD03011, 3,4-dichloro-5-hydroxy-1-(2-morpholinoethyl)-1H-pyrrol-2(5H)-one]",,,,can be enhanced,enhance Adenovirus transduction,enhance Adenovirus transduction,enhance adenovirus transduction,"A/FM1 (H1N1) production in ovo (plaque assay titer, HA titer by HPLC AUC) (A/FM1 (H1N1)): enhances A/FM1 (H1N1) production"
"O=c1[nH]ncc(Cl)c1Cl [MD02026, 4,5-Dichloro-2H-pyridazin-3-one]",,enhance the production,enhance the production,can be enhanced,,enhance Adenovirus transduction,enhance adenovirus transduction,
"COS(C)(=O)=O [MMS, methyl methanesulfonate, reference compound]",,,,,,,,reversion rate (number of revertants) [9]: high number of revertants
"CN1C(=O)C(Cl)=C(Cl)C1O (stereo not drawn) [CM01031, 3,4-Dichloro-5-hydroxy-1-methyl-1,5-dihydro-pyrrol-2-one]",,,,,,,,"PR8 titers, MDCK (NBL-2) cells [10]: Enhancement of PR8; PR8 titers, MDCK.2 cells [10]: Enhancement of PR8"
"O=C1C(Cl)=C(Cl)C(O)N1CCc1ccccc1 (stereo not drawn) [MD03009, 3,4-dichloro-5-hydroxy-1-phenethyl-1H-pyrrol-2(5H)-one]",,,,can be enhanced,enhance Adenovirus transduction,,,
"C#CCN1C(=O)C(Cl)=C(Cl)C1O (stereo not drawn) [MD01151, 3,4-Dichloro-5-hydroxy-1-prop-2-ynyl-1,5-dihydro-pyrrol-2-one]",enhance Herpes Simplex Virus type-1 (HSV-1) replication,,,can be enhanced,enhance Adenovirus transduction,,,
"O=C1C(Cl)=C(Cl)C(O)N1Cc1ccccc1 (stereo not drawn) [MD01145, α,β-dichloro-γ-hydroxy-N-benzyl-crotonic lactam]",enhance Herpes Simplex Virus type-1 (HSV-1) replication,enhance the production,enhance the production,can be enhanced,,enhance Adenovirus transduction,enhance adenovirus transduction,dose-dependent increase in the number of revertants [9]: does not produce a dose-dependent increase; mutagenic potential [9]: not mutagenic
